{
  "source": "patent US20030215817A1",
  "about": "“Modulation of gene expression in formation of fatty atherosclerotic lesions” (priority 2003, published 2003)",
  "key": {"[1]": {"test_system": "REC1_8 (MspI CCCG 243) mRNA", "test": "quantified RT-PCR, Rec1_8", "type": "in vivo, rabbit", "conditions": "for Relative Abundance Rec1_8, 20 pg F: hypercholesterolemic plus lercanidipine racemate, eight weeks, H2 (normocholesterolemic)=1.0", "description": "(§1) Nineteen of the isolated DST clones were further validated using RT-PCR analyses; the data are presented in FIGS. 6-24 and in Tables 5-23, below. For each DST examined, the optimal annealing temperature and reagent conditions were determined for the corresponding set of primers (see Table 25) based on results from a preliminary experiment. In eight separate reactions, each set of primers was assayed to find the optimal conditions by adjusting the following four parameters: primer concentration, dNTP concentration, MgCl2 concentration, and number of Taq polymerase units. Once optimal conditions were determined, each DST was run in duplicate multiple simultaneous reactions which usually included at least four dilutions of template (cDNA library), plus control reactions lacking template, and six sequential data points for numbers of cycles.\n(§2) Reactions were performed using “Hot Start” PCR with the Clontech TaqStart antibody system (Cat. #5400-1). Each reaction contained 1 ml of the cDNA library dilution as template, determined amounts of AmpliTaq DNA polymerase (cat. #N808-0156), MgCl2, dNTPs (GibcoBRL cat. #10297-018), primer, and Clontech TaqStart Antibody in a 20 ml final reaction volume using 10×Taq buffer II (without MgCl2). Typically, a master mix containing all components except the template was prepared and aliquoted. Various templates were then added to these master mix samples and 20 ml volumes were subsequently dispensed into individual reaction tubes. At various times during the PCR run, tubes were removed sequentially on a predetermined schedule in order to quantitate expression of the target DST over a “window” of cycle times. After amplification, the samples were quantified via fluorimetry.\n(§3) PCR was performed at annealing temperatures that were five degrees above the average melting temperature of each primer pair. For primers greater than 10 bases (in a 0.05M salt solution), melting temperature was calculated using the following formula: Tm=59.9+41[% GC]−[675/Primer Length], where %GC is the decimal value. Following determination of the average melting temperature of the primer pair, the annealing temperature was determined by adding five degrees to the average melting temperature. PCR was performed using the following program: 1) 95 degrees Celsius, 3 minutes; 2) 95 degrees Celsius, 30 seconds; 3) TM+5 degrees Celsius, 30 seconds; 4) 72 degrees Celsius, for a time dependent on target length at 16 bp/second; 5) repeat steps 2-4 33 more cycles; 6) 72 degrees Celsius, 3 minutes; 7) 14 degrees Celsius, forever.\n(§4) Following temperature cycling, 2 ml of the PCR reaction was added to 140 ml of a 1:280 dilution of PicoGreen (Molecular Probes cat. #P-11495 (10×100 ml)) in TE pH 7.5 in a 96-well Costar UV microtiter plate (Fisher cat. #07-200623). The samples were mixed gently for 1.5 minutes and allowed to equilibrate at room temperature in the dark for 15 minutes. The concentration of the PCR products was quantified by fluorimetry using a PerSeptive Biosystems CytoFluor series 4000 multi-well plate reader.\n(§5) Background fluorescence was determined by using duplicate control samples that were cycled with all reaction components except the template. The mean value from these duplicate background control samples was subtracted from the corresponding experimental values prior to analyzing results. The sensitivity of the PicoGreen dsDNA assay is reported to be 250 pg/ml (50 pg dsDNA in a […] assay volume) using a fluorescence microplate reader such as was used in these measurements. […]"}, "[2]": {"test_system": "Rec1_7 (CACA 282) mRNA", "test": "quantified RT-PCR, Rec1_7", "type": "in vivo, rabbit", "conditions": "for Relative Abundance Rec1_7, 100 pg F: hypercholesterolemic plus lercanidipine racemate, eight weeks, H2 (normocholesterolemic)=1.0", "description": "as §1, §2, §3, §4, §5"}, "[3]": {"test_system": "REC1_5 (AGTG 184) mRNA", "test": "quantified RT-PCR, Rec1_5", "type": "in vivo, rabbit", "conditions": "for Relative Abundance Rec1_5, 100 pg F: hypercholesterolemic plus lercanidipine racemate, eight weeks, H2 (normocholesterolemic)=1.0", "description": "as §1, §2, §3, §4, §5"}, "[4]": {"test_system": "REC1_17 (TCGT 199) mRNA", "test": "quantified RT-PCR, Rec1_17", "type": "in vivo, rabbit", "conditions": "for Relative Abundance Rec1_17, 20 pg F: hypercholesterolemic plus lercanidipine racemate, eight weeks, H2 (normocholesterolemic)=1.0", "description": "as §1, §2, §3, §4, §5"}, "[5]": {"test_system": "Rec1_20 (TTAC 210) mRNA", "test": "quantified RT-PCR, Rec1_20", "type": "in vivo, rabbit", "conditions": "for Relative Abundance Rec1_20, 20 pg F: hypercholesterolemic plus lercanidipine racemate, eight weeks, H2 (normocholesterolemic)=1.0", "description": "as §1, §2, §3, §4, §5"}, "[6]": {"test": "preliminary kinetic studies: plasma levels after subcutaneous administration", "type": "in vivo", "conditions": "rabbit, sc, rabbits, after 7 days from the administration", "description": "The doses of lercanidipine used were determined from preliminary kinetic studies."}, "[7]": {"test": "arterial blood pressure in treated rabbits", "type": "in vivo", "conditions": "doses utilized (3 mg/kg/week subcutaneously)", "description": "The daily doses of cholesterol (1.6 g) were given in the morning (at 08.00 hours) each mixed in 20 g of food pellets. Normal chow, up to 150 g, was added after all the cholesterol-rich diet was eaten (usually within 30 minutes). The hydrochloride salt of lercanidipine or (R)-lercanidipine (Recordati, Milano, Italy) was administered subcutaneously as a solution in 50% propylene glycol. […] Animals had free access to water and were kept in a 12 hour light-dark cycle. Blood was drawn from the central ear artery at day 29 after treatment, started in order to monitor the lercanidipine plasma level at 24 hour post-dose."}, "[8]": {"test_system": "smooth muscle cell", "conditions": "in vitro (Corsini et al. 1996); cited from earlier work"}, "[9]": {"test_system": "cholesterol acyl transferase", "conditions": "Soma et al. 1998; cited from earlier work"}, "[10]": {"test_system": "LDL", "conditions": "Soma et al. 1998; cited from earlier work"}, "[11]": {"conditions": "(R)-enantiomer compared with the other enantiomer of lercanidipine; cited from earlier work"}, "[12]": {"conditions": "hypercholesterolemic animals receiving lercanidipine racemate"}, "[13]": {"conditions": "hypercholesterolemic animals receiving lercanidipine"}},
  "note": "Counter-ions that a name gives are not always drawn.",
  "data": [
    {"smiles": "COC(=O)C1=C(C)NC(C)=C(C(=O)OC(C)(C)CN(C)CCC(c2ccccc2)c2ccccc2)C1c1cccc([N+](=O)[O-])c1", "note": "(racemic) [lercanidipine, lercanidipine hydrochloride]", "values": [
      {"measurement": "Relative Abundance Rec1_8, 20 pg F", "setting": "[1]; cycle 26", "value": 4.6},
      {"measurement": "Relative Abundance Rec1_8, 20 pg F", "setting": "[1]; cycle 28", "value": 2.2},
      {"measurement": "Relative Abundance Rec1_8, 20 pg F", "setting": "[1]; cycle 30", "value": 3.5},
      {"measurement": "Relative Abundance Rec1_8, 20 pg F", "setting": "[1]; cycle 32", "value": 4.8},
      {"measurement": "Relative Abundance Rec1_8, 20 pg F", "setting": "[1]; cycle 34", "value": 2.1},
      {"measurement": "Relative Abundance Rec1_8, 20 pg F", "setting": "[1]; cycle 36", "value": 2.1},
      {"measurement": "expression of Rec1_8 at 8 weeks (RT-PCR study), in words", "setting": "[1]; [12]", "value": "elevated"},
      {"measurement": "Relative Abundance Rec1_7, 100 pg F", "setting": "[2]; cycle 24", "value": 0.00},
      {"measurement": "Relative Abundance Rec1_7, 100 pg F", "setting": "[2]; cycle 26", "value": 0.00},
      {"measurement": "Relative Abundance Rec1_7, 100 pg F", "setting": "[2]; cycle 28", "value": 0.06},
      {"measurement": "Relative Abundance Rec1_7, 100 pg F", "setting": "[2]; cycle 30", "value": 0.10},
      {"measurement": "Relative Abundance Rec1_7, 100 pg F", "setting": "[2]; cycle 32", "value": 0.3},
      {"measurement": "Relative Abundance Rec1_7, 100 pg F", "setting": "[2]; cycle 34", "value": 0.5},
      {"measurement": "expression of Rec1_7 at 8 weeks (RT-PCR study), in words", "setting": "[2]; [12]", "value": "down-regulated"},
      {"measurement": "Relative Abundance Rec1_5, 100 pg F", "setting": "[3]; cycle 24", "value": 512.5},
      {"measurement": "Relative Abundance Rec1_5, 100 pg F", "setting": "[3]; cycle 26", "value": 805.0},
      {"measurement": "Relative Abundance Rec1_5, 100 pg F", "setting": "[3]; cycle 28", "value": 0.2},
      {"measurement": "Relative Abundance Rec1_5, 100 pg F", "setting": "[3]; cycle 30", "value": 0.6},
      {"measurement": "Relative Abundance Rec1_5, 100 pg F", "setting": "[3]; cycle 32", "value": 1.1},
      {"measurement": "Relative Abundance Rec1_5, 100 pg F", "setting": "[3]; cycle 34", "value": 1.0},
      {"measurement": "expression of Rec1_5 at 8 weeks (RT-PCR study), in words", "setting": "[3]; hypercholesterolemic animals receiving lercanidipine racemate, at 28-30 cycles", "value": "decreased"},
      {"measurement": "Relative Abundance Rec1_17, 20 pg F", "setting": "[4]; cycle 24", "value": 0.01},
      {"measurement": "Relative Abundance Rec1_17, 20 pg F", "setting": "[4]; cycle 26", "value": 0.00},
      {"measurement": "Relative Abundance Rec1_17, 20 pg F", "setting": "[4]; cycle 28", "value": 0.09},
      {"measurement": "Relative Abundance Rec1_17, 20 pg F", "setting": "[4]; cycle 30", "value": 0.08},
      {"measurement": "Relative Abundance Rec1_17, 20 pg F", "setting": "[4]; cycle 32", "value": 0.21},
      {"measurement": "Relative Abundance Rec1_17, 20 pg F", "setting": "[4]; cycle 34", "value": 0.43},
      {"measurement": "expression of Rec1_17 at 8 weeks (RT-PCR study), in words", "setting": "[4]; [13]", "value": "decreased"},
      {"measurement": "Relative Abundance Rec1_20, 20 pg F", "setting": "[5]; cycle 26", "value": 0.0},
      {"measurement": "Relative Abundance Rec1_20, 20 pg F", "setting": "[5]; cycle 28", "value": 0.1},
      {"measurement": "Relative Abundance Rec1_20, 20 pg F", "setting": "[5]; cycle 30", "value": 0.2},
      {"measurement": "Relative Abundance Rec1_20, 20 pg F", "setting": "[5]; cycle 32", "value": 0.2},
      {"measurement": "Relative Abundance Rec1_20, 20 pg F", "setting": "[5]; cycle 34", "value": 0.2},
      {"measurement": "expression of Rec1_20 at 8 weeks (RT-PCR study), in words", "setting": "[5]; [13]", "value": "decreased"},
      {"measurement": "concentration at 7 days", "setting": "[6]; subcutaneous administration of 1 mg/kg", "value": 500, "unit": "ng/g"},
      {"measurement": "concentration at 7 days", "setting": "[6]; subcutaneous administration of 3 mg/kg", "value": 3200, "unit": "ng/g"},
      {"measurement": "effect on arterial blood pressure", "setting": "[7]", "value": "did not affect"},
      {"measurement": "smooth muscle cell migration and proliferation", "setting": "[8]", "value": "effectively reduce"},
      {"measurement": "cholesterol acyl transferase activity", "setting": "[9]", "value": "modulate"},
      {"measurement": "antioxidant for LDL in endothelial cell-mediated oxidation", "setting": "[10]", "value": "act as an antioxidant"}
    ]},
    {"smiles": "COC(=O)C1=C(C)NC(C)=C(C(=O)OC(C)(C)CN(C)CCC(c2ccccc2)c2ccccc2)[C@@H]1c1cccc([N+](=O)[O-])c1.Cl", "note": "(single isomer, unassigned) [(R)-lercanidipine]", "values": [
      {"measurement": "effectiveness in lowering blood pressure, less effective", "setting": "[11]", "value": "2-3 orders of magnitude"}
    ]}
  ]
}
